According to patent US7429618B2, “Potassium channel modulators” (Neurosearch A/S, priority 2002, dated 2008):

| melting point | Compound |
| --- | --- |
| 240 °C (dec.) | Cc1ccc(C(c2ccc(F)cc2)(c2ccc(F)cc2)P(=O)(O)O)cc1 [Compound 10-15, [Bis-(4-fluoro-phenyl)-p-tolyl-methyl]-phosphonic acid] |
| 117 to 119 °C | CCOC(=O)C(C(=O)OCC)C(C#N)(c1ccc(F)cc1)c1ccc(F)cc1 [Compound 27, 2-[Cyano-bis-(4-fluoro-phenyl)-methyl]-malonic acid diethyl ester] |
| 147 to 149 °C | CS(=O)(=O)C(c1ccc(F)cc1)(c1ccc(F)cc1)c1ccccc1F [Compound 7-14, Methanesulphonyl-2-fluorophenyl-bis-(4-fluoro-phenyl) methane] |
| 147.7 to 151.8 °C | [O-][n+]1ccccc1SC(c1ccc(F)cc1)(c1ccc(F)cc1)c1ccc(F)cc1 [Compound 5-13, 2-[Tris-(4-fluorophenyl)-methylsulfanyl]-pyridine-N-oxide] |
| 120 to 121 °C | CN(C(=O)CSC(c1ccc(F)cc1)(c1ccc(F)cc1)c1ccccc1F)c1ccccc1 [Compound 5-15, 2-[Bis-(4-fluoro-phenyl)-(2-fluoro-phenyl)-methylsulfanyl]-N-methyl-N-phenyl-acetamide] |
| 133 to 134 °C | CC(SC(c1ccc(F)cc1)(c1ccc(F)cc1)c1ccccc1F)C(N)=O (centres unmarked) [Compound 5-18, 2-[Bis-(4-fluoro-phenyl)-(2-fluoro-phenyl)-methylsulfanyl]-propionamide] |
| 163 to 164 °C | Fc1ccc(C(OP2OCCO2)(c2ccc(F)cc2)c2ccccc2F)cc1 |
| 93 to 94 °C | N#CCC(C#N)(c1ccc(F)cc1)c1ccc(F)cc1 [Compound 24, 2,2-Bis-(4-fluoro-phenyl)-succinonitrile] |
| 135.5 to 140.5 °C | Cn1ccnc1SC(c1ccc(F)cc1)(c1ccc(F)cc1)c1ccc(F)cc1 [Compound 5-11, 1-Methyl-2-[tris-(4-fluorophenyl)-methylsulfanyl]-1H-imidazole] |
| 228 to 230 °C | O=P(O)(O)C(c1ccc(F)cc1)(c1ccc(F)cc1)c1ccccc1F [Compound 10-14, [Bis-(4-fluoro-phenyl)-(2-fluoro-phenyl)-methyl]-phosphonic acid] |
| 88.6 to 89.5 °C | O=[N+]([O-])c1ccc(OC(c2ccc(F)cc2)(c2ccc(F)cc2)c2nccs2)cc1C(F)(F)F [Compound 1, 2-[Bis-(4-fluoro-phenyl)-(4-nitro-3-trifluoromethyl-phenoxy)-methyl]-thiazole] |
| < 50 °C | CC(=O)C(C#N)(c1ccc(F)cc1)c1ccc(F)cc1 [Compound 18, 2,2-Bis-(4-fluoro-phenyl)-3-oxo-butyronitrile] |
| 131.6 °C | COP(=O)(OC)C(c1ccc(F)cc1)(c1ccc(F)cc1)c1ccc(F)cc1 |
| 140.6 to 145.3 °C | CS(=O)(=O)C(c1ccc(F)cc1)(c1ccc(F)cc1)c1ccc(F)cc1 [Compound 7-1, Methyl tris(4-fluorophenyl)methyl sulfone] |
| 111 to 112 °C | N#CCSC(c1ccc(F)cc1)(c1ccc(F)cc1)c1ccccc1F [Compound 5-19, [Bis-(4-fluoro-phenyl)-(2-fluoro-phenyl)-methylsulfanyl]-acetonitrile] |
| 136.6 °C | COP(=O)(OC)C(c1ccc(F)cc1)(c1ccc(F)cc1)c1ccccc1F |
| 208 to 212.5 °C | N#CC(c1ccc(F)cc1)(c1ccc(F)cc1)C(c1ccccc1)c1ccccc1 [Compound 12, 2,2-Bis-(4-fluoro-phenyl)-3,3-diphenyl-propionitrile] |
| 142.3 to 147 °C | CC(C)C(C#N)(c1ccc(F)cc1)c1ccc(F)cc1 [Compound 6, 2,2-Bis-(4-fluoro-phenyl)-3-methyl-butyronitrile] |
| 131.5 to 132.5 °C | COP(=O)(OC)C(c1ccc(F)cc1)(c1ccccc1F)c1ccccc1Cl (centres unmarked) |
| 136 to 137 °C | COP(=O)(OC)C(c1ccc(F)cc1)(c1ccc(F)cc1)c1ccc(Cl)cc1 |
| 128 to 129 °C | O=C(CSC(c1ccc(F)cc1)(c1ccc(F)cc1)c1ccccc1F)N1CCCCC1 [Compound 5-16, 2-[Bis-(4-fluoro-phenyl)-(2-fluoro-phenyl)-methylsulfanyl]-1-piperidin-1-yl-ethanone] |
| 112 to 113 °C | O=C(O)CSC(c1ccc(F)cc1)(c1ccc(F)cc1)c1ccccc1F [Compound 5-20, [(2-Fluoro-phenyl)-bis-(4-fluoro-phenyl)-methylsulfanyl]-acetic acid] |
| 157.4 to 160.6 °C | O=S(=O)(c1ccccc1)C(c1ccc(F)cc1)(c1ccc(F)cc1)c1ccc(F)cc1 [Compound 7-7, Phenyl tris(4-fluorophenyl)methyl sulfone] |
| 119 to 120 °C | NC(=O)CSC(c1ccc(F)cc1)(c1ccc(F)cc1)c1ccccc1F [Compound 5-17, 2-[Bis-(4-fluoro-phenyl)-(2-fluoro-phenyl)-methylsulfanyl]-acetamide] |
| 215 to 219 °C | C=CCC(C#N)(c1ccc(F)cc1)c1ccccc1F (centres unmarked) [Compound 4, 2-(2-Fluoro-phenyl)-2-(4-fluoro-phenyl)-pent-4-enenitrile] |
| 210 to 215.3 °C | N#CC(c1ccc(F)cc1)(c1ccccc1F)C(c1ccccc1)c1ccccc1 (centres unmarked) [Compound 13, 2-(2-Fluoro-phenyl)-2-(4-fluoro-phenyl)-3,3-diphenyl-propionitrile] |
| 122 to 123 °C | CCN(CC)C(=O)CSC(c1ccc(F)cc1)(c1ccc(F)cc1)c1ccccc1F [Compound 5-14, 2-[Bis-(4-fluoro-phenyl)-(2-fluoro-phenyl)-methylsulfanyl]-N,N-diethyl-acetamide] |
| 195 to 196 °C | Fc1ccc(C(OP2OCCO2)(c2ccc(F)cc2)c2ccc(F)cc2)cc1 |
| 104 to 105 °C | COC(=O)C(C#N)(c1ccc(F)cc1)c1ccccc1F (centres unmarked) [Compound 22, Cyano-(4-fluoro-phenyl)-(2-fluoro-phenyl)-acetic acid methyl ester] |
